Active and inactive are the calls of the source.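 How the source made its calls: active means fitted half-maximal concentration for changing background-corrected GFP signal at or below a set limit; inactive means the rest.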
Experiment: TOR pathway reporter MEP2-GFP, concentration series – S. cerevisiae, flow cytometry GFP, MLPCN hits, dose response (AID 2742);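 further: GFP tag reports level of MEP2 protein as a downstream target of TOR signalling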
Conditions: S. cerevisiae MEP2-GFP strain, flow cytometry fluorescence, 3 h; at 33 µM (top of the series)

Row | Structure (SMILES) | GFP fluorescence (kMESF), higher = increase
1 | COc1ccccc1N=Nc1ccc(O)c2ncccc12 | 5.16 kMESF (inactive)
2 | COc1ccc(N2C(=O)CC(Sc3ncn[nH]3)C2=O)c(OC)c1 (centres undefined) | 3.82 kMESF (inactive)
3 | COc1cc(/C=C/c2ccc3c(Br)cc(Br)c(O)c3n2)ccc1O | 9.24 kMESF (inactive)
4 | COc1ccc(N2CCN(C(=O)c3ccccc3)CC2)c([N+](=O)[O-])c1 | 3.33 kMESF (inactive)
5 | O=C(Nc1nc(-c2ccccn2)cs1)C1COc2ccccc2O1 (centres undefined) | 5.21 kMESF (inactive)
6 | Cc1cccc(C)c1NC(=O)C(Cl)C(=O)c1ccccc1 (centres undefined) | 4.47 kMESF (inactive)
7 | O=C1ON=C(c2ccccc2)/C1=C/c1ccco1 | 4.24 kMESF (inactive)
8 | O=C(NNC(=S)NC(=O)C12CC3CC(CC(C3)C1)C2)c1ccncc1 | 6.72 kMESF (inactive)
9 | COc1cccc(C(=O)Nc2nnc(-c3ccc(Cl)cc3)o2)c1 | 4.71 kMESF (inactive)
10 | O=[N+]([O-])c1cc(CN2CCN(c3ccccc3)CC2)c(O)c2ncccc12 | 4.24 kMESF (inactive)
11 | COc1ccccc1N=Cc1nc(-c2ccccc2)oc1OC(C)=O | 4.52 kMESF (inactive)
12 | Oc1c(I)cc(I)c2cccnc12 | 4.67 kMESF (inactive)
13 | O/C=c1\ccc2cccc3nc(C(F)(F)F)nc1c23 | 14.3 kMESF (inactive)
14 | CCc1sc(C(=O)Nc2nc(-c3ccccn3)cs2)cc1C | 5.26 kMESF (inactive)
15 | COc1ccc(NC2=C(Cl)C(=O)N(CCc3ccccc3)C2=O)cc1 | 2.7 kMESF (inactive)
16 | Cc1cc(C)c(S(=O)(=O)N2CCC(C(=O)NCc3ccc(Cl)cc3Cl)CC2)c(C)c1 | 4.68 kMESF (inactive)
17 | O=C1ON=C(c2ccc(Cl)cc2)/C1=C/c1ccc(O)cc1 | 3.61 kMESF (inactive)
18 | Cc1ccc(/C=C2/SC(=S)N(C3CCCCC3)C2=O)o1 | 4.94 kMESF (inactive)
19 | O=C1Oc2ccccc2C(=O)/C1=C/c1ccccc1O | 5.39 kMESF (inactive)
20 | O=C(Oc1c(Cl)cc(Cl)c2cccnc12)c1ccco1 | 9.81 kMESF (inactive)
21 | CCN(CC)c1ccc2cc(-c3nc4ccccc4[nH]3)c(=O)oc2c1 | 6.39 kMESF (inactive)

Row | Structure (SMILES) | GFP fluorescence (kMESF), higher = increase
22 | CC1=C/C(=N\OS(=O)(=O)c2ccccc2)C(C(C)C)=CC1=O | 8.38 kMESF (inactive)
23 | CC(=O)N(C1=C(Cl)C(=O)c2ccccc2C1=O)C1CCCCC1 | -3.41 kMESF (inactive)
24 | Cc1ccc(NC(=O)c2cc(N3C(=O)C=CC3=O)ccc2N2CCOCC2)cc1Cl | 1.96 kMESF (inactive)
25 | O=C1ON=C(c2ccccc2)/C1=C\c1ccco1 | 4.59 kMESF (inactive)
26 | N=C1S/C(=C\c2ccco2)C(=O)N1c1nccs1 | 4.56 kMESF (inactive)
27 | N/C(Cc1ccc(Cl)cc1)=N\OC(=O)c1cccc2ccccc12 | 3.73 kMESF (inactive)
28 | CCOC(=O)c1ccc(N=Cc2nc(-c3ccccc3)oc2OC(C)=O)cc1 | 5.65 kMESF (inactive)
29 | CS(=O)(=O)c1sc(C#N)c2c1C(=O)CC(c1ccccc1)C2 (centres undefined) | 4.8 kMESF (inactive)
30 | COc1ccc(C(=O)NC(=S)NNC(=O)c2cnccn2)cc1OC | 2.46 kMESF (inactive)
31 | Cc1ccc(/C=N/Nc2ncc(Cl)cc2Cl)s1 | 4.77 kMESF (inactive)
32 | Oc1c(CN2CCN(c3ccc(F)cc3)CC2)cc(Cl)c2cccnc12 | 10.7 kMESF (inactive)
33 | CCCOc1ccc(C(=O)NNC(=S)NC(=O)CC)cc1 | 4.12 kMESF (inactive)
34 | Cc1cc(=O)n2c3c(sc2n1)C(=O)N(Cc1ccccc1)C3=O | 2.89 kMESF (inactive)
35 | COc1ccccc1C(=O)NNC(=S)NC(=O)c1ccco1 | 3.64 kMESF (inactive)
36 | Cc1[nH]n(-c2ccccc2)c(=O)c1C(c1ccccc1[N+](=O)[O-])C(C#N)C#N (centres undefined) | 4.8 kMESF (inactive)
37 | O=C(/C=C/c1ccc(Cl)c([N+](=O)[O-])c1)c1cccnc1 | 3.17 kMESF (inactive)
38 | CC(=O)SC(C[N+](=O)[O-])c1cn(C(C)=O)c2ccccc12 (centres undefined) | 6.37 kMESF (inactive)
39 | COC(=O)/C(=C/c1c[nH]c2ccccc12)[N+](=O)[O-] | 4.87 kMESF (inactive)
40 | N/C(Cc1ccc(Cl)cc1Cl)=N\OC(=O)c1cccs1 | 4.76 kMESF (inactive)
41 | O=C(O)c1ccc2c(c1)C(=O)/C(=C/c1ccccc1)C2=O | 2.47 kMESF (inactive)
42 | N#Cc1c2ccc([N+](=O)[O-])cc2[n+]([O-])n1-c1ccccc1 | 1.82 kMESF (inactive)

Row | Structure (SMILES) | GFP fluorescence (kMESF), higher = increase
43 | COc1ccc(N=Cc2nc(-c3ccccc3)oc2OC(C)=O)cc1 | 3.51 kMESF (inactive)
44 | O=c1c2sc(-c3ccccc3)cc2nc2n1CCC2 | 3.03 kMESF (inactive)
45 | Cc1cccc(OCCN2CSC(=S)N(C)C2)c1 | 3.71 kMESF (inactive)
46 | C=C1C(O)[C@@H]2O[C@]3(CC[C@H](/C=C/C(C)[C@@H]4CC(C)=CC5(O[C@H](C[C@@](C)(O)C(=O)O)CCC5O)O4)O3)CC[C@H]2O[C@@H]1C(O)CC(C)[C@H]1OC2(CCCCO2)CCC1C (some centres undefined) | 1.77 kMESF (inactive)
47 | Cc1cccc(C(=O)NNC(=S)NC(=O)c2ccccc2)c1 | 5.31 kMESF (inactive)
48 | O=c1[nH]c(-c2ccccn2)nc(C(F)(F)F)c1Br | 4.02 kMESF (inactive)
49 | Cc1cc(/C=C2/SC(=S)N(c3cccc(Cl)c3)C2=O)c(C)n1-c1cccnc1 | 8.22 kMESF (inactive)
50 | O=C(CSC1=NS(=O)(=O)c2ccccc21)Nc1ccccc1 | 2.66 kMESF (inactive)
51 | O=[N+]([O-])c1cnc(Sc2ccncn2)s1 | 3.07 kMESF (inactive)
52 | COCCN1C(=O)/C(=C/c2ccc(N3CCCC3)cc2C)SC1=S | 7.22 kMESF (inactive)
53 | Cc1nn2c(NCc3ccccn3)c3c(nc2c1-c1ccccc1)CCC3 | 2.73 kMESF (inactive)
54 | Nc1nc(N)c2nc(CNc3ccc(C(=O)NC(CCC(=O)O)C(=O)O)cc3)cnc2n1 (centres undefined) | 1.62 kMESF (inactive)
55 | COc1ccc(C(c2c(C)[nH]n(C(N)=S)c2=O)C(C#N)C#N)cc1 (centres undefined) | 4.93 kMESF (inactive)
56 | Oc1c(Br)cc(Br)cc1C=Nc1ccc2c(c1)OCO2 | 5.35 kMESF (inactive)
57 | Cn1c(=O)c(C(=O)NNC(=O)c2ccc(Br)cc2)c(O)c2ccccc21 | 3.4 kMESF (inactive)
58 | Cc1ccc(S(=O)(=O)Cc2cc(F)c([N+](=O)[O-])cc2[N+](=O)[O-])cc1 | 0.65 kMESF (inactive)
59 | O=c1c2cc(Br)ccc2nc(-c2ccc([N+](=O)[O-])cc2)n1O | 3.87 kMESF (inactive)
60 | O=C(c1ccccc1)c1ccccc1N1C(=O)C=CC1=O | 4.22 kMESF (inactive)
61 | Cc1ccc2c(c1)c(/C=C/c1cc[n+](C)cc1)c(C)n2C | 9.93 kMESF (inactive)
62 | Nc1ccccc1SC(C[N+](=O)[O-])c1ccccc1 (centres undefined) | 3.67 kMESF (inactive)
63 | O=C(COc1ccccc1)NNC(=S)NC(=O)c1ccc(Cl)cc1Cl | 4.07 kMESF (inactive)

Row | Structure (SMILES) | GFP fluorescence (kMESF), higher = increase
64 | O=C(Nc1nnc(-c2ccc(F)cc2)o1)c1cc(Cl)sc1Cl | 3.38 kMESF (inactive)
65 | CCOc1ccc(C(C)=O)cc1N1C(=O)C2C3C=CC(O3)C2C1=O (centres undefined) | 3.31 kMESF (inactive)
66 | COc1ccc(-c2cc3cc(C(=O)O)ccn3c2C(=O)c2ccccc2)cc1 | 3.23 kMESF (inactive)
67 | CCOC(=O)CS(=O)(=O)c1nc(-c2ccc(F)cc2)cc(C(F)(F)F)n1 | 5.21 kMESF (inactive)
68 | CC1=NOC(=O)/C1=C\c1ccc(-c2cc(Cl)ccc2Cl)o1 | 4.04 kMESF (inactive)
69 | COc1cccc(/C=C2\SC(=S)N(CCCC(=O)Nc3ccc(C(=O)O)cc3)C2=O)c1 | 1.55 kMESF (inactive)
70 | CN1CCN(C(c2ccc(C(F)(F)F)cc2)c2ccc3cccnc3c2O)CC1 (centres undefined) | 4.86 kMESF (inactive)
71 | Cc1ccc(S(=O)(=O)/N=C(\Sc2ccccc2)c2ccccc2)cc1 | 3.88 kMESF (inactive)
72 | Cc1ccc(N=Nc2ccc(O)c3ncccc23)cc1 | 3.18 kMESF (inactive)
73 | CCc1ccc(OCC(=O)NNC(=S)NC(=O)C2CC2)c(Br)c1 | 5.6 kMESF (inactive)
74 | CC(=O)Oc1oc(-c2ccccc2)nc1C=Nc1ccc(N(C)C)cc1 | 3.44 kMESF (inactive)
75 | O=C(Nc1nnc(-c2ccc3c(c2)CCCC3)o1)c1ccc(Cl)cc1Cl | 3.77 kMESF (inactive)
76 | Cc1nn2c(-c3ccncc3)nnc2c2ccccc12 | 1.97 kMESF (inactive)
77 | O=C(C#Cc1cccc([N+](=O)[O-])c1)c1ccccc1 | 3.98 kMESF (inactive)
78 | Nc1ccccc1C#CC(=O)c1ccccc1 | 6.68 kMESF (inactive)
79 | CC(C)[C@@]1(c2ccc(Cl)cc2)ON(c2ccccc2C(F)(F)F)C1=O | 2.87 kMESF (inactive)
80 | O=C(Oc1cccc2cccnc12)c1ccc(Br)o1 | 1.82 kMESF (inactive)
81 | O=C1c2ccccc2C(=O)N1OS(=O)(=O)c1ccccc1 | 3.26 kMESF (inactive)
82 | Cc1c(N2C(=O)/C(=C\c3ccccc3O)SC2=S)c(=O)n(-c2ccccc2)n1C | 4.71 kMESF (inactive)
83 | COc1cc(NC(=O)c2ccccc2[N+](=O)[O-])ccc1NC(=O)c1cc2ccccc2o1 | 2.3 kMESF (inactive)
84 | CCN(CC)c1ccc(/C=C2\C(=O)c3ccc(C(=O)O)cc3C2=O)cc1 | 47.5 kMESF (inactive)

Reference: PubChem BioAssay AID2742 (NMMLSC, 2010)
